# In US7776863B2, “Methods of treating HIV infection” (priority 2004, dated 2010):
# Test system: HIV-1 LAI
# Assay: microbe, parasite or virus in culture
# Settings: for Combination Indices at % HIV Inhibition (Confidence Interval) 50% / Combination Indices at % HIV Inhibition (Confidence Interval) 75% / Combination Indices at % HIV Inhibition (Confidence Interval) 90% / Overall Result (combined anti-HIV effect): Compound 1 + named drug; for Combination Indices at % HIV Inhibition (Confidence Interval) 50% / Combination Indices at % HIV Inhibition (Confidence Interval) 75% / Combination Indices at % HIV Inhibition (Confidence Interval) 90%: 95% confidence interval in parentheses; for Overall Result (combined anti-HIV effect): all ratios, MT-2 cells, HIV-1 LAI; for EC50: Human immunodeficiency virus 1, MT2, 120 h
# Experimental: Virus and cell lines. The T-cell lines, MT-2 and PM-1 were obtained through the AIDS Research and Reference Reagent Program, NIAID, and were contributed by Dr. D. Richman and Dr. R. Gallo, respectively. Both cell lines were cultured in RPMI 1640 medium supplemented with 10% fetal bovine serum, 2 mM L-glutamine and sub-cultured twice a week. The LAI strain of HIV-1 was obtained from the Fred Hutchinson Cancer Research Center, and the Bal strain was from NIH. Both virus stocks were amplified and titered in MT-2 cells (LAI) and PM-1 cells (Bal) using a virus infectivity assay.
# Drug Susceptibility and Cytotoxicity Assays. For drug susceptibility assays, MT-2 cells were infected with HIV-1 LAI (or PM-1 cells with HIV-1 Bal) at an MOI of 0.005, and seeded into 96-well microtiter plates (0.1×10^6 cells/ml) containing serial dilutions of test compounds. […] Each drug ratio consisted of an array of 3-fold serial dilutions, and was performed in quadruplicate. The plates were incubated at 37° C./5% CO2. The MT-2 cells infected with HIV-1 LAI were incubated for 5 days. On day-five post-infection, 20 μl from each well was harvested and quantitated by a reverse transcriptase (RT) assay, or in samples involving non-nucleoside RT inhibitors, an MTS assay. The PM-1 cells infected with HIV-1 Bal and used for studying the combinations with CCR5 inhibitors were incubated for six days. On day-six post-infection, 20 μl from each well was harvested, 20- and 50-fold diluted and quantitated by p24 assay. Cytotoxicity assays were performed using uninfected cells, exposed to the same drug combinations, and incubated for six days. Cell viability was determined by an MTS assay. The CC50 values were calculated by using the exponential form of the median effect equation as mentioned below for calculation of EC50.
# Analysis of Drug Combination Effects. For determination of CI values, drugs were diluted in a fixed ratio and multiple ratios were analyzed. The drug serial dilutions spanned a range of concentrations near the EC50 value of each compound, so that equivalent antiviral activities could be compared. Concentration-response curves were estimated for each individual drug and every combination using the median-effect equation. The equation was fit using a nonlinear regression routine (Proc Nlin) in PC SAS version 8.01 (SAS Institute Inc., SAS Version 8.01, Cary, N.C.: SAS Institute Inc., 1990).
# In this equation, Fa stands for “fraction affected,” and represents the fraction of the viral load that has been inactivated. […] ED50 is drug concentration that is expected to reduce the amount of virus by 50%, and m is a parameter that reflects the slope of the concentration-response curve.
# To assess antiviral effects of different drug combination treatments, combination indices (CIs) were calculated according to Chou and Rideout. The combination index was computed as CI=[D]1/[Dm]1+[D]2/[Dm]2
# In this equation [Dm]1 and [Dm]2 are the concentrations of drugs that would individually produce a specific level of effect, while [D]1 and [D]2 are the concentrations of drugs in combination that would produce the same level of effect.
# Theoretically, additivity is implied if the CI is equal to one, synergy if the CI is less than one, and antagonism if the CI is greater than one. […] At best, we can construct a range that contains the likely values for the CI, given the noise in the data. In this report, these ranges are reported in parentheses next to each point estimate of the CI. […] If the range fell entirely above 1.0, we would infer antagonistic behavior. If the range were to include 1.0, we would infer additivity.
# In carrying out the combination experiments below, the EC50 for Compound 1 and each comparator compound was determined during the course of each study, and used in the subsequent data analysis.
# [1] = EC50 ratio 1:1 (Compound 1:comparator)
# [2] = EC50 ratio 1:2.5 (Compound 1:comparator)
# [3] = EC50 ratio 2.5:1 (Compound 1:comparator)
EC50 [nM],Structure (SMILES),Combination Indices at % HIV Inhibition (Confidence Interval) 50% [1],Combination Indices at % HIV Inhibition (Confidence Interval) 75% [1],Combination Indices at % HIV Inhibition (Confidence Interval) 50% [2],Combination Indices at % HIV Inhibition (Confidence Interval) 75% [2],Combination Indices at % HIV Inhibition (Confidence Interval) 90% [2],Combination Indices at % HIV Inhibition (Confidence Interval) 50% [3],Combination Indices at % HIV Inhibition (Confidence Interval) 75% [3],Combination Indices at % HIV Inhibition (Confidence Interval) 90% [3],Overall Result (combined anti-HIV effect),Combination Indices at % HIV Inhibition (Confidence Interval) 90% [1],Overall Result (combined anti-HIV effect) (listed as efavirenz)
25,"Nc1nc(=O)n([C@@H]2CS[C@H](CO)O2)cc1F [Emtricitabine, emtricitabine]","0.42 (0.35, 0.50)","0.49 (0.37, 0.61)","0.19 (0.15, 0.22)","0.35 (0.26, 0.44)","0.67 (0.36, 0.99)","0.11 (0.09, 0.12)","0.26 (0.21, 0.31)","0.67 (0.44, 0.89)",Synergistic,,
1,"O=C1Nc2ccc(Cl)cc2[C@@](C#CC2CC2)(C(F)(F)F)O1 [Efavirenz, efavirenz]","0.70 (0.50, 0.89)",,"0.47 (0.28, 0.65)","0.46 (0.21, 0.70)","0.45 (0.06, 0.83)","0.52 (0.36, 0.69)","0.39 (0.21, 0.57)","0.30 (0.08, 0.51)",Synergistic,"0.32 (0.13, 0.50)",synergistic
34,"Nc1ccn([C@H]2CC[C@@H](CO)O2)c(=O)n1 [Zalcitabine, zalcitabine]","0.58 (0.46, 0.69)","0.61 (0.43, 0.78)",,"0.56 (0.44, 0.68)","0.65 (0.43, 0.86)","0.24 (0.22, 0.26)","0.18 (0.16, 0.20)","0.14 (0.12, 0.17)",Synergistic,"0.69 (0.39, 1.00)",
3,"CC(C)(C)NC(=O)[C@@H]1CN(Cc2cccnc2)CCN1C[C@@H](O)C[C@@H](Cc1ccccc1)C(=O)N[C@H]1c2ccccc2C[C@H]1O [Indinavir, indinavir]","0.41 (0.26, 0.56)","0.69 (0.34, 1.04)","0.30 (0.18, 0.41)","0.62 (0.32, 0.92)","1.96 (0.29, 3.64)","0.05 (0.03, 0.06)","0.16 (0.13, 0.20)","0.68 (0.39, 0.98)",Additive-,"1.59 (0.29, 2.90)",
11,"CC(C)CN(C[C@@H](O)[C@H](Cc1ccccc1)NC(=O)O[C@H]1CCOC1)S(=O)(=O)c1ccc(N)cc1 [Amprenavir, amprenavir]","0.14 (0.11, 0.17)","0.35 (0.26, 0.45)","0.13 (0.09, 0.17)","0.27 (0.17, 0.38)","0.58 (0.19, 0.97)","0.46 (0.32, 0.60)","0.79 (0.46, 1.11)","1.33 (0.42, 2.25)",Additive-,"0.87 (0.46, 1.28)",
4,"Cc1cccc(C)c1OCC(=O)N[C@@H](Cc1ccccc1)[C@@H](O)C[C@H](Cc1ccccc1)NC(=O)[C@H](C(C)C)N1CCCNC1=O [Lopinavir, lopinavir]","0.47 (0.38, 0.56)","0.66 (0.48, 0.84)","0.89 (0.73, 1.05)","0.90 (0.67, 1.13)","1.00 (0.60, 1.40)","0.29 (0.25, 0.33)","0.37 (0.30, 0.44)","0.51 (0.37, 0.65)",Additive-,,
,"Nc1ccn([C@@H]2CS[C@H](CO)O2)c(=O)n1 [Lamivudine, lamivudine]","0.75 (0.45, 1.05)","0.79 (0.35, 1.23)","0.13 (0.10, 0.16)","0.21 (0.16, 0.27)","0.39 (0.21, 0.58)","0.14 (0.10, 0.17)","0.26 (0.18, 0.33)","0.49 (0.22, 0.75)",,"0.90 (0.11, 1.69)",
1,"Cc1cn([C@H]2C[C@H](N=[N+]=[N-])[C@@H](CO)O2)c(=O)[nH]c1=O [Zidovudine, zidovudine]","0.25 (0.17, 0.34)","0.53 (0.29, 0.78)","0.46 (0.36, 0.56)","0.52 (0.36, 0.68)","0.59 (0.29, 0.89)","0.37 (0.28, 0.47)","0.49 (0.32, 0.67)","0.66 (0.28, 1.05)",Additive-,"1.13 (0.24, 2.02)",

Structure (SMILES),EC50 [nM],Combination Indices at % HIV Inhibition (Confidence Interval) 50% [1],Combination Indices at % HIV Inhibition (Confidence Interval) 75% [1],Combination Indices at % HIV Inhibition (Confidence Interval) 50% [2],Combination Indices at % HIV Inhibition (Confidence Interval) 75% [2],Combination Indices at % HIV Inhibition (Confidence Interval) 90% [2],Combination Indices at % HIV Inhibition (Confidence Interval) 50% [3],Combination Indices at % HIV Inhibition (Confidence Interval) 75% [3],Combination Indices at % HIV Inhibition (Confidence Interval) 90% [3],Overall Result (combined anti-HIV effect),Combination Indices at % HIV Inhibition (Confidence Interval) 90% [1],Overall Result (combined anti-HIV effect) (listed as efavirenz)
"COC(=O)N[C@H](C(=O)N[C@@H](Cc1ccccc1)[C@@H](O)CN(Cc1ccc(-c2ccccn2)cc1)NC(=O)[C@@H](NC(=O)OC)C(C)(C)C)C(C)(C)C [Atazanavir, atazanavir]",0.7,"0.53 (0.46, 0.60)",,,"0.49 (0.29, 0.69)","1.17 (0.38, 1.95)","0.34 (0.26, 0.42)","0.56 (0.38, 0.74)","0.97 (0.46, 1.48)",Additive-,"0.90 (0.64, 1.17)",
"COc1cnc(-n2cnc(C)n2)c2[nH]cc(C(=O)C(=O)N3CCN(C(=O)c4ccccc4)CC3)c12 [Compound 1, 1-Benzoyl-4-[2-[4-methoxy-7-(3-methyl-1H-1,2,4-triazol-1-yl)-1H-pyrrolo[2,3-c]pyridin-3-yl]-1,2-dioxoethyl]-piperazine]",0.1 to 0.3,,,,,,,,,,,
